# Reference: patent EP0991643B1 (SCHERING CORPORATION, priority 1997, dated 1998)
# Target: T1, partially purified rat brain farnesyl protein transferase (FPT) (Rattus norvegicus, UniProt Q02293+Q04631)
# T1 construct: partially purified rat brain farnesyl protein transferase (FPT); from tissue; host or cells: rat brain
# Test: In vitro enzyme assay: inhibition of Ras-CVLS farnesylation by farnesyl protein transferase (FPT)
# Format: biochemical
# Conditions: H-ras (Ras-CVLS) substrate; methods of WO 95/10515 or WO 95/10516
# Procedure: (§1) 1. In vitro enzyme assays: FPT IC50 (inhibition of farnesyl protein transferase, in vitro enzyme assay) are determined by the methods disclosed in […] or WO 95/10516. […] 2. Cell-based assay. COS IC50 values refer to the COS cells activity inhibition of Ras processing, are determined by the methods disclosed in […] or WO 95/10516.
# T1 sequence (Q02293 whole entry, one chain of several): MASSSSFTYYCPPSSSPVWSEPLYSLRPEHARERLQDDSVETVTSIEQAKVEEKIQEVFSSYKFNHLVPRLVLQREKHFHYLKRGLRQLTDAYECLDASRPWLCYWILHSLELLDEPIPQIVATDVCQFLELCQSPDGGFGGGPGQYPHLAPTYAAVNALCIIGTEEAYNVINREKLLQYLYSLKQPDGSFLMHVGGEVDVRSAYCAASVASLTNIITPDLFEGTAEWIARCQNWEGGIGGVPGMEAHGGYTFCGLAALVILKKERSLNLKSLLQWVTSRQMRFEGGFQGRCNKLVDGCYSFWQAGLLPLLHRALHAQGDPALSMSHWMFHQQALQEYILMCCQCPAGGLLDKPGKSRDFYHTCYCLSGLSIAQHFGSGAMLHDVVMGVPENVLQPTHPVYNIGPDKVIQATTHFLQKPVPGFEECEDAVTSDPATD
row,SMILES,IC50
1,CC(C)=NOCC(=O)N1CCC([C@H]2c3ncc(Br)cc3CCc3cc(Cl)cc(Br)c32)CC1 [Example 2],6.5 nM
2,COc1ccc(/C(C)=N/OCC(=O)N2CCC([C@H]3c4ncc(Br)cc4CCc4cc(Cl)cc(Br)c43)CC2)cc1 [Example 3],180 nM
3,"CC(C)=NOCCC(=O)N1CCC([C@H]2c3ncc(Br)cc3CCc3cc(Cl)cc(Br)c32)CC1 [Example 4, (+)-4-(3,10-dibromo-8-chloro-6,11-dihydro-5H-benzo[5,6]cyclohepta[1,2-b]pyridin-11(R)-yl)-1-[3-[[(1-methylethylidene]amino]oxy]-1-oxopropyl]piperidine]",54 nM
4,"CC(C)(C)OC(=O)NOCC(=O)N1CCC([C@H]2c3ncc(Br)cc3CCc3cc(Cl)cc(Br)c32)CC1 [Example 5, (+)-1,1-Dimethylethyl-N-[2-[4-(3,10-dibromo-8-chloro-6,11-dihydro-5H-benzo[5,6]cyclohepta[1,2-b]pyridin-11(R)-yl)-1-piperidinyl]-2-oxoethoxy]carbamate]",170 nM
5,O=C(CO/N=C/c1cc[n+]([O-])cc1)N1CCC([C@H]2c3ncc(Br)cc3CCc3cc(Cl)cc(Br)c32)CC1 [Example 6],3.6 nM
6,O=C(CO/N=C/c1ccccc1O)N1CCC([C@H]2c3ncc(Br)cc3CCc3cc(Cl)cc(Br)c32)CC1 [Example 7],370 nM
7,"C/C(=N\OCC(=O)N1CCC([C@H]2c3ncc(Br)cc3CCc3cc(Cl)cc(Br)c32)CC1)c1ccc(Cl)cc1 [Example 8, (+)-1-[[[[(E)-1-(4-chlorophenyl)ethylidene]amino]oxy]acetyl]-4-(3,10-dibromo-8-chloro-6,11-dihydro-5H-benzo[5,6]cyclohepta[1,2-b]pyridin-11(R)-yl)piperidine]",> 180 nM
8,"C/C(=N\OCC(=O)N1CCC([C@H]2c3ncc(Br)cc3CCc3cc(Cl)cc(Br)c32)CC1)c1cccs1 [Example 9, (+)-4-(3,10-dibromo-8-chloro-6,11-dihydro-5H-benzo[5,6]cyclohepta[1,2-b]pyridin-11(R)-yl)-1-[[[[(E)-1-(2-thienyl)ethylidene]amino]oxy]acetyl]piperidine]",150 nM
9,"O=C(CON=C1CCCCC1)N1CCC([C@H]2c3ncc(Br)cc3CCc3cc(Cl)cc(Br)c32)CC1 [Example 10, (+)-4-(3,10-dibromo-8-chloro-6,11-dihydro-5H-benzo[5,6]cyclohepta[1,2-b]pyridin-11(R)-yl)-1-[[[[(cyclohexylidene]amino]]oxy]acetyl]piperidine]",35 nM
10,O=C(CON=C1CCC2(CC1)OCCO2)N1CCC([C@H]2c3ncc(Br)cc3CCc3cc(Cl)cc(Br)c32)CC1 [Example 11],24 nM
11,O=C(CON=C1CCOCC1)N1CCC([C@H]2c3ncc(Br)cc3CCc3cc(Cl)cc(Br)c32)CC1 [Example 12],12 nM
12,O=C(CON=C1CCSCC1)N1CCC([C@H]2c3ncc(Br)cc3CCc3cc(Cl)cc(Br)c32)CC1 [Example 13],13 nM
13,"CC(=O)NOCC(=O)N1CCC([C@H]2c3ncc(Br)cc3CCc3cc(Cl)cc(Br)c32)CC1 [Example 14, (+)-N-[2-[4-(3,10-dibromo-8-chloro-6,11-dihydro-5H-benzo[5,6]cyclohepta[1,2-b]pyridin-11(R)-yl)-1-piperidinyl]-2-oxoethoxy]acetamide]",31 nM

# Test system: Ras processing in COS cells
# Test: Cell-based assay: inhibition of Ras processing in COS cells
# Conditions: not given
# Procedure: as §1
row,SMILES,IC50
1,O=C(CO/N=C/c1cc[n+]([O-])cc1)N1CCC([C@H]2c3ncc(Br)cc3CCc3cc(Cl)cc(Br)c32)CC1 [Example 6],690 nM
